# Source: US20210386743A1, “USE OF PDE9 INHIBITORS FOR TREATMENT” (The Johns Hopkins University, priority 2018, published 2021)
# “Also recorded” adds a separate entry of the source. Like-named read-outs stand apart in the source and are kept apart here.
# Columns and labels:
# [1] = tested on: OVX+HFD+TAC female mice (C57BL/6N); test: Body weight and body composition (EchoMRI) in OVX+HFD+TAC female mice; assay type: in vivo, mouse; details: OVX+HFD+TAC females
# Procedure: (§1) All animals were fed a high fat diet (HFD) consisting of 60% kcal derived from fat was fed to both male and female C57BL6N mice for 3 months. Mice were divided into two groups: 1) Controls with intact ovaries; 2) Ovariectomized (Ovx) mice. Mice were assigned to receive trans-aortic constriction (TAC) or sham surgery after 3 months of HFD, and further randomized to placebo vehicle and PDE9-I (PDE9 inhibitor oral gavage 20 mg/kg twice daily) (FIG. 1). Comparison of Group 1 and 2 tests the efficacy of PDE9-I to ameliorate and/or reverse HFD and pressure-overload pathophysiology independent of sex hormone status.
# (§2) Body composition: total fat mass, lean mass, and water content was determined by quantitative nuclear magnetic resonance (Echo-MRI®). In brief, after 20 weeks on the HFD, total body fat and lean body mass were assessed non-invasively by EchoMRI instrument. The analyzer delivers precise body composition measurements of fat, lean, free water, and total water masses in live animals weighing up to 100 grams. Conscious mice were placed in a constraint tube that was then inserted into the EchoMRI for a period of approximately 30 s and these measurements obtained.
# (§3) Female mice (C57BL/6N) were placed on a 60% fat diet starting at age 5-weeks. Two weeks later, there were randomized to receive bilateral oophorectomy or sham surgery. Cardiac imaging for ventricular function and morphometry was determined 2 months later. Between 8-11 weeks after ovariectomy, the mice underwent a second surgical procedure introducing a mild aortic constriction (TAC) in the transverse aorta to increase pressure load on the heart. The purpose of the TAC procedure was to stimulate the heart to synthesize natriuretic peptide, which is important for the generation of cyclic GMP which PDE9 regulates. Serial echocardiograms were obtained, and starting 1 week after TAC, mice were further randomized to receive vehicle control or a PDE9 inhibitor (PF-7943). Intact mouse metabolic studies, fat/lean mass determinations, and heart function were assessed. At terminal study, tissues were harvested for molecular signaling.
# After 20 weeks on the HFD+ 8 wks mTAC, total body fat and lean body mass were assessed non-invasively by EchoMRI.
# [2] = tested on: OVX+HFD+TAC female mice (C57BL/6N); test: Fasting blood markers of metabolic syndrome and liver histology in OVX+HFD+TAC female mice; assay type: in vivo, mouse; details: for hepatic fat accumulation (liver histology): OVX females on HFD, vs no additional therapy; for fasting blood glucose / fasting blood total cholesterol / fasting total blood triglycerides: OVX+HFD+TAC females, end of study
# Procedure: as §1, §3
# Multiple biomarkers of metabolic syndrome and fat accumulation in the liver were improved in OVX+HFD+TAC female mice by PDE9 inhibition (FIG. 8). Data are shown at end-of study for fasting blood glucose, cholesterol, triglycerides, and histology of the liver.
# male HFD+TAC mice [3] = test: Whole body metabolism (indirect calorimetry) in male HFD+TAC mice; assay type: in vivo, mouse
# Procedure: as §1
# (§4) Whole body metabolism: Indirect calorimetry was used to assess metabolic parameters in live animals using the OxyMAX Comprehensive Lab Animal Monitoring System (Columbus Instruments, Columbus Ohio). Basic metabolic rate (VO2 consumption), VCO2 release and energy expenditure (EE) were measured by indirect calorimetry in high-fat-fed OVX mice groups treated with (Drug) and without PDE9 inhibitor (Control). Respiratory exchange ratio (RER) was calculated from VCO2 release-to-VO2 consumption ratio (VCO2 release/VO2 consumption). CLAMS cabinet was used to measure oxygen consumption rate at 22° C. (VO2), CO2 emission, respiratory exchange ratio, heat production, food consumption (g consumed per day), and total and ambulatory activity per day.
# (§5) In a third experiment, we exposed male mice of a similar starting age (5 weeks) to the same HFD protocol, and then same TAC protocol. As before, mice were randomized to either vehicle control or active PDE9-inhibitor starting 1 week after the TAC procedure. FIG. 11.
# male HFD+TAC mice [4] = test: Body weight and body composition in male HFD+TAC mice; assay type: in vivo, mouse; details: listed as PDE9-inhibitor
# Procedure: as §1, §2
# In a third experiment, we exposed male mice of a similar starting age (5 weeks) to the same HFD protocol, and then same TAC protocol. […]
# male HFD+TAC mice [5] = test: Cardiac remodeling (echocardiography, Nppa RT-qPCR) in obese male HFD+TAC mice; assay type: in vivo, mouse; details: vs vehicle; for natriuretic peptide (Nppa) gene expression in myocardium: RT-qPCR; for cardiac hypertrophy (LV mass): drug started 1 week after TAC
# Procedure: as §1
# (§6) Changes in cardiac function and structure were measured using echocardiogram, histopathology and markers of cardiac stress (Nppa Gene expression by RT-qPCR). For qPCR, RNA is isolated from left ventricular myocardium (Trizol Reagent, Invitrogen), reverse transcribed to cDNA (High Capacity RNA-to-cDNA Kit, Applied Biosystems, Life Technologies), and undergoes PCR amplification using TaqMan probes for atrial natriuretic peptide (Nppa) (mouse #Mm01255747_g1, rat #Rn00664637_g1). The threshold cycle value was determined using the crossing point method, and samples normalized to the GAPDH for each run. Echocardiography was performed in conscious mice using serial M-mode transthoracic echocardiography (VisualSonics Vevo 2100, 18-38 MHz transducer; SanoSite Inc.). Images were obtained and analyzed by an individual blinded to the animal condition.
# as §5
# [6] = tested on: OVX+HFD+TAC female mice (C57BL/6N); test: Whole body metabolism by indirect calorimetry (CLAMS metabolic cage) in OVX+HFD+TAC female mice; assay type: in vivo, mouse; details: OVX+HFD+TAC females, vs vehicle; for oxygen consumption (VO2): normalized to body mass
# Procedure: as §1, §4, §3
# RER is calculated from VCO2/VO2 ratio. […] Even if fat mass is assumed to contribute only 15% of total metabolic activity relative to lean mass, these differences remain significant (data not shown). […] P values are for unpaired t-tests between groups.
# [7] = tested on: female mice, high fat diet induced obesity plus mild pressure stress; test: Cardiac disease in obese (HFD) female mice with mild pressure stress on the heart; assay type: in vivo, mouse; details: females; high fat diet induced obesity and metabolic syndrome + mild pressure stress on the heart
# Source text: Our laboratory has studied the impact of PDE9 inhibition on the heart, in particular in male mice subjected to pressure overload stress to induced cardiac hypertrophy, dysfunction, and pathological fibrosis. Over the past 1.5 years, we have turned to females, and in particular added the impact of high fat diet induced obesity and metabolic syndrome. This is then combined with a mild pressure stress on the heart to stimulate production of natriuretic peptides and some hypertrophy of the heart muscle. […] However, there was minimal impact on peripheral body weight, metabolism, or fat mass in these studies.
# [8] = tested on: C57BL6/N female mice with intact ovaries, HFD+TAC; test: Whole body metabolism (indirect calorimetry) in HFD+TAC female mice with intact ovaries; assay type: in vivo, mouse; details: females with intact ovaries, HFD + pressure overload
# Procedure: as §1, §4
# (§7) In a second experiment, we examined the impact of PDE9 inhibition on female mice (C57BL6/N) subjected to HFD+TAC, but without ovariectomy and thus had normal estrogen levels.
# [9] = tested on: C57BL6/N female mice with intact ovaries, HFD+TAC; test: Body weight and body composition in HFD+TAC female mice with intact ovaries; assay type: in vivo, mouse; details: females with intact ovaries, vs vehicle
# Procedure: as §1, §2, §7
# [10] = tested on: OVX+HFD+TAC female mice (C57BL/6N); test: Echocardiography of cardiac function and structure in OVX+HFD+TAC female mice; assay type: in vivo, mouse; details: OVX+HFD+TAC females, vs vehicle; for left ventricular hypertrophy (LV Mass) / ejection fraction (EF) / fractional shortening (FS): serial echo, drug started 1 week after TAC; for left ventricular hypertrophy (LV Mass): oral gavage 20 mg/kg twice daily, 20 mg/kg
# Procedure: as §1, §6, §3
# [11] = tested on: female mice, models of heart disease; details: cited from earlier work
# [12] = end of study, listed as PDE9 inhibitor
smiles,measurement,setting,value
C[C@@H]1CN(Cc2ncccn2)C[C@H]1c1nc2c(cnn2C2CCOCC2)c(=O)[nH]1 [PF 04447943],relative weight reduction compared to OVX mice on normal diet,[1],~30%
same,absolute lean body mass,[1]; EchoMRI,no change in absolute lean body mass
same,percent body fat,[1]; EchoMRI,reduced percent body fat
same,percent lean body mass,[1]; EchoMRI,increased percent lean body mass
same,fat weight,"[1]; EchoMRI, 20 weeks HFD + 8 wks mTAC",significant decline in fat weight
same,body weight decline,[1]; PDE9 inhibitor treatment,~20%
same,hepatic fat accumulation (liver histology),[2]; listed as PDE9-I,markedly reduced
same,hepatic fat accumulation (liver histology),[2]; listed as PDE9 inhibitor,marked reduction of fat accumulation in the liver
same,fasting blood glucose,[2]; listed as PDE9-I,reduced
same,fasting blood total cholesterol,[2]; listed as PDE9-I,reduced
same,fasting total blood triglycerides,[2]; listed as PDE9-I,reduced
same,fasting blood glucose,[2]; listed as PDE9 inhibitor,reduced towards normal control levels
same,fasting blood total cholesterol,[2]; listed as PDE9 inhibitor,reduced towards normal control levels
same,fasting total blood triglycerides,[2]; listed as PDE9 inhibitor,reduced towards normal control levels
same,CO2 generation,male HFD+TAC mice [3],did not display consistent changes
same,RER,male HFD+TAC mice [3],did not display consistent changes
same,energy expenditure (heat generation),male HFD+TAC mice [3]; listed as PDE9-inhibitor,did not demonstrate increases; also recorded: did not display consistent changes
same,oxygen consumption (metabolic rate),male HFD+TAC mice [3]; listed as PDE9-inhibitor,did not demonstrate increases; also recorded: did not display consistent changes
same,total body weight / body mass,male HFD+TAC mice [4],only borderline altered; also recorded: trend towards reduced body weight
same,total fat mass / body fat,male HFD+TAC mice [4],significant reduction in total fat mass; also recorded: decline in body fat
same,natriuretic peptide (Nppa) gene expression in myocardium,male HFD+TAC mice [5]; listed as PDE9-I,reduced
same,natriuretic peptide (Nppa) gene expression in myocardium,male HFD+TAC mice [5]; listed as PDE9-inhibitor,reduced by active therapy
same,cardiac hypertrophy (LV mass),male HFD+TAC mice [5]; listed as PDE9-inhibitor,reduced left heart mass
same,cardiac hypertrophy (LV mass),male HFD+TAC mice [5]; listed as PDE9 inhibitor,significantly lowers cardiac hypertrophy
same,ejection fraction,male HFD+TAC mice [5]; listed as PDE9-inhibitor,increases in both fractional shortening and ejection fraction
same,fractional shortening,male HFD+TAC mice [5]; listed as PDE9-inhibitor,increases in both fractional shortening and ejection fraction
same,ejection fraction,male HFD+TAC mice [5]; listed as PDE9 inhibitor,improves cardiac function
same,fractional shortening,male HFD+TAC mice [5]; listed as PDE9 inhibitor,improves cardiac function
same,oxygen consumption (VO2),[6]; listed as PDE9I,increases total oxygen consumption normalized to body mass
same,oxygen consumption (VO2),[6]; listed as PDE9 inhibitor,increases in oxygen consumption
same,carbon dioxide generation (VCO2),[6]; normalized to total body mass,increases
same,calculated energy expenditure (heat),[6],increased
same,respiratory exchange ratio (RER),[6],not significantly altered
same,cardiac disease,[7],can indeed ameliorate cardiac disease
same,calculated energy expenditure,[8],do not show any changes
same,CO2 production,[8]; listed as PDE9-I,no difference
same,overall oxygen consumption,[8]; listed as PDE9-I,no difference
same,respiratory exchange ratio,[8]; listed as PDE9-I,no difference
same,CO2 production,[8]; listed as PDE9i,do not show any changes
same,overall oxygen consumption,[8]; listed as PDE9i,do not show any changes
same,respiratory exchange ratio,[8]; listed as PDE9i,do not show any changes
same,fat mass,[9]; listed as PDE0-I,no significant change
same,lean mass,[9]; listed as PDE0-I,no significant change
same,percent fat mass,[9]; listed as PDE0-I,no significant change
same,percent lean mass,[9]; listed as PDE0-I,no significant change
same,total body weight,[9]; listed as PDE0-I,no significant change
same,fat mass,[9]; listed as PDE9 inhibitor,did not have any alteration
same,lean mass,[9]; listed as PDE9 inhibitor,did not have any alteration
same,percent fat mass,[9]; listed as PDE9 inhibitor,did not have any alteration
same,percent lean mass,[9]; listed as PDE9 inhibitor,did not have any alteration
same,total body weight,[9]; listed as PDE9 inhibitor,did not have any alteration
same,cardiac output,[10]; end of study,restoration towards normal control values
same,ejection fraction,[10]; end of study,restoration towards normal control values
same,"ventricular end-diastolic volume (Volume, d)",[10]; end of study,restoration towards normal control values
same,"ventricular end-systolic volume (Volume, s)",[10]; end of study,restoration towards normal control values
same,early to late atrial (E/A) filling,[10]; [12],restored; also recorded: restoration towards normal control values
same,isovolumic ventricular relaxation time (IVRT),[10]; [12],restored; also recorded: restoration towards normal control values
same,left ventricular hypertrophy (LV Mass),[10],reduced left ventricular hypertrophy
same,left ventricular hypertrophy (LV Mass),[10]; listed as PDE9 inhibitor,reduced LV mass
same,ejection fraction (EF),[10],greater
same,fractional shortening (FS),[10],greater fractional shortening
same,ejection fraction (EF),[10]; listed as PDE9 inhibitor,improved FS and EF
same,fractional shortening (FS),[10]; listed as PDE9 inhibitor,improved FS
CCCc1nn(C)c2c(=O)[nH]c(-c3cc(S(=O)(=O)N4CCN(C)CC4)ccc3OCC)nc12 [sildenafil],treatment of heart disease,"[11]; female mice with ovaries, several models of heart disease",successfully treated
same,treatment of heart disease,"[11]; female mice, ovaries first removed",totally ineffective
same,treatment of heart disease,"[11]; female mice, ovaries removed, exogenous estrogen replacement",rescued
